{
  "source": "patent US20140234252A1",
  "about": "“Composition and Methods for the Treatment of Degenerative Retinal Conditions” (The Provost, Fellows, Foundation Scholars, and the other …, priority 2011, published 2014)",
  "key": {"[1]": {"system": "ARPE-19 cells", "assay": "VEGF ELISA in ARPE-19 cells treated with recombinant IL-18", "format": "cell-based", "details": "increasing doses of IL-18, 24 hrs, growth medium", "method": "(§1) ELISA's were used to quantify cytokines in supernatants from the various experimental groups used throughout this study. IL-1β (RnD Systems), IL-18 (MBL International), IL-6 (RnD Systems), TNF-α (RnD Systems) and VEGF (RnD Systems) were analyzed throughout. All ELISA's were conducted a minimum of 3 times in triplicate. Inhibitors used during this study were added at the following highest concentrations 1 h prior to inflammasome activation: 1 μg/ml of caspase-1 inhibitor VI (Calbiochem), 5 μM cytochalasin D (Sigma Aldrich, Ireland), 10 μM CA-074 Me (cathepsin B inhibitor) (Sigma Aldrich, Ireland), 10 μM DPI (Sigma Aldrich, Ireland).\n(§2) ARPE-19 cell line (ATCC CRL 2302) were obtained from LGC promochem, THP1 cells and primary isolated human peripheral blood mononuclear […] (PBMCs) were used for in vitro inflammasome activation assays. Cells were cultured at 37° C., 5% CO2, 95% air in a 1:1 mixture of Dulbecco's modified Eagle's medium (DMEM) and Ham's F12 medium with 1.2 g/L sodium bicarbonate, 2.5 mM L-glutamine, 15 mM HEPES, 0.5 mM sodium pyruvate (Sigma Aldrich) with 10% foetal calf serum (FCS). […]\n(§3) We reasoned that IL-18 might confer its protection via the regulation of VEGF synthesis. To test this hypothesis we treated ARPE19 cells and a mouse brain microvascular endothelial cell line (bEnd.3) with recombinant IL-18 and subsequently analysed VEGF levels in the growth medium. […]"}, "[2]": {"system": "mouse brain microvascular endothelial cell line (bEnd.3)", "assay": "VEGF ELISA in bEnd.3 cells treated with recombinant IL-18", "format": "cell-based", "details": "increasing doses of IL-18, 24 hrs, growth medium", "method": "as §1, §2, §3"}, "[3]": {"system": "intraocular neovascularization in C57BL/6 mice", "details": "administered to C57BL/6 mice during development of oxygen induced retinopathy; cited from earlier work"}, "[4]": {"system": "wet AMD", "details": "human, in vivo; cited from earlier work"}, "[5]": {"system": "human PBMC", "assay": "Cytokine ELISA in LPS-primed, C1Q-activated human PBMC with inhibitors", "format": "cell-based", "details": "PBMC primed with LPS overnight, 5 μg/ml C1Q 6 h, inhibitor added 1 h before C1Q", "method": "(§4) FIG. 3: Complement factor C1Q, a component of Drusen, activates the NLRP3 inflammasome: (a) Production of IL-1β (left panel) and TNFα (right panel) in BMDMs primed with CEP for 3 h and activated for 6 h with C1q at increasing doses. (b) Western blot of caspase-1 cleavage products in THP1 cells primed with LPS and treated with increasing doses of C1Q. (c) Live cell imaging of immortalised BL6 BMDMs stably expressing YFP-ASC. Cells were primed for 3 hrs with either LPS (top panel) or CEP-HSA followed by treatment with 10 μg C1Q (right panel) for a further 2 hrs. Oligomerisation of ASC-YFP was observed by speck formation, original magnification ×60. (d) IL-1β (left panel) and TNF-α (right panel) production in WT and Nlrp3^-/- BMDCs primed with LPS (3 h) and activated with C1Q (16 h) at increasing doses (2.5, 5 and 10 μg C1Q). (e) IL-1β, IL-18 and IL-6 production in human PBMC primed with […] LPS overnight and activated with 5 μg ml C1Q for 6 h, with the addition, 1 h before C1Q treatment of increasing doses (10 fold) of ZVAD (caspase-1 inhibitor). All ELISA data are representative of a minimum of 3 separate experiments carried out in triplicate.\nFIG. 13: IL-1β, IL-18 and IL-6 production in human PBMC primed with 100 ng/ml LPS overnight and activated with 5 μg/ml C1Q for 6 h, with the addition, 1 h before C1Q treatment of increasing doses (10 fold) of (a) DPI (ROS inhibitor), (b) Bafilomycin (inhibits lysosomal acidification), (c) CA-074 Me (cathepsin B inhibitor).\nas §1\n(§5) ARPE-19 cell line (ATCC CRL 2302) were obtained from LGC promochem, THP1 cells and primary isolated human peripheral blood mononuclear […] (PBMCs) were used for in vitro inflammasome activation assays. Cells were cultured at 37° C., 5% CO2, 95% air in a 1:1 mixture of Dulbecco's modified Eagle's medium (DMEM) and Ham's F12 medium with 1.2 g/L sodium bicarbonate, 2.5 mM L-glutamine, 15 mM HEPES, 0.5 mM sodium pyruvate (Sigma Aldrich) with 10% foetal calf serum (FCS). BMDCs and BMDMs were also isolated from WT, NLRP3-/-, TLR-2-/-, C3H/HeN and C3H/HeJ mice on a congenic C57/B16 background. BMDCs and BMDMs were stained with anti-CD11c-APC and anti-CD11b-PeCy7. Cells were gated on live single cells and expression of CD11c and CD11b was assesed by flow cytometry (FIG. 19). Mouse bEnd.3 microvascular endothelial cells were grown on fibronectin (Sigma Aldrich Ireland) coated tissue culture flasks in DMEM containing Glutamax and 10% FCS."}, "[6]": {"assay": "Zeta potential measurement of C1Q in solution", "format": "physicochemical"}, "[7]": {"system": "BMDMs", "assay": "Cytokine ELISA in BMDMs activated with C1Q", "format": "cell-based, mouse", "method": "as §4, §1\n(§6) ARPE-19 cell line (ATCC CRL 2302) were obtained from LGC promochem, THP1 cells and primary isolated human peripheral blood mononuclear […] (PBMCs) were used for in vitro inflammasome activation assays. […]"}, "[8]": {"system": "THP1 cells", "assay": "Western blot of caspase-1 cleavage products in THP1 cells", "format": "cell-based, human", "details": "THP1 cell lysates", "method": "Generally, antibodies specific for caspase-1 (Santa-Cruz Biotech), beta-actin (Abcam), NLRP3 (Sigma Aldrich, Ireland), TLR-4 (Santa-Cruz Biotech) were incubated on membranes overnight at 4° C. Membranes were washed with TBS, and incubated with a secondary antibody against rabbit (IgG) with Horse-Radish-Peroxidase (HRP) conjugates (1:2500) (Sigma-Aldrich, Ireland), or mouse (IgG) (1:1000), (Sigma-Aldrich, Ireland), for 3 hours at room temperature. Immune complexes were detected using enhanced chemiluminescence (ECL). All Western blots were repeated a minimum of 3 times.\nas §5, with “Mouse bEnd.3 microvascular endothelial cells were grown on fibronectin (Sigma Aldrich Ireland) coated tissue culture flasks in DMEM containing Glutamax and 10% FCS.” left out"}, "[9]": {"system": "BMDMs expressing YFP-ASC", "assay": "ASC speck formation in immortalised BMDMs expressing YFP-ASC", "format": "cell-based, mouse", "details": "primed BMDMs, live cell imaging", "from_the_text": "Live cell imaging of speck formation was undertaken using a temperature and CO2 regulated confocal laser scanning microscopy (Olympus FluoView TM FV1000)."}, "[10]": {"system": "BMDCs", "assay": "Cytokine ELISA in WT and Nlrp3-/- BMDCs primed with LPS and activated with C1Q", "format": "cell-based, mouse", "details": "for production of IL-1β: LPS 3 h, C1Q 16 h", "method": "as §4, §1, §6"}},
  "note": "Residues, ends and D or L forms follow the SMILES beside them. *: point of attachment. Cbz = O=C(OCc1ccccc1)*; CH2F = FC*",
  "data": [
    {"molecule": "IL-18: 18KDa mature IL-18; protein sequence NCBI Accession no. NP—001553.1; also covers recombinant IL-18", "values": [
      {"measurement": "levels of VEGF secreted", "setting": "[1]", "result": "significantly decreased"},
      {"measurement": "levels of VEGF secreted", "setting": "[2]", "result": "significantly decreased"},
      {"measurement": "neovascularization", "setting": "[3]", "result": "no inhibition of neovascularization"}
    ]},
    {"molecule": "Infliximab: marketed drug tested in clinical trials in wet AMD", "values": [
      {"measurement": "subjects in whom symptoms were greatly exacerbated", "setting": "[4]", "result": "more than 50%"}
    ]},
    {"molecule": "CCCNC(=O)[C@H]1O[C@@H]1C(=O)N[C@H](C(=O)N1CCC[C@H]1C(=O)OC)[C@@H](C)CC", "note": "[CA-074 Me]", "values": [
      {"measurement": "C1Q induced IL-1β production", "setting": "[5]", "result": "restricted"},
      {"measurement": "C1Q induced IL-18 production", "setting": "[5]", "result": "restricted"},
      {"measurement": "IL-6 production", "setting": "[5]", "result": "no effect"}
    ]},
    {"molecule": "CO/C1=C\\C(C)=C\\[C@@H](C)[C@@H](O)[C@@H](C)C/C(C)=C/C=C/[C@H](OC)[C@@H]([C@@H](C)[C@@H](O)[C@H](C)[C@@]2(O)C[C@@H](O)[C@H](C)[C@@H](C(C)C)O2)OC1=O", "note": "[bafilomycin A]", "values": [
      {"measurement": "C1Q induced IL-1β production", "setting": "[5]", "result": "restricted"},
      {"measurement": "C1Q induced IL-18 production", "setting": "[5]", "result": "restricted"},
      {"measurement": "IL-6 production", "setting": "[5]", "result": "no effect"}
    ]},
    {"molecule": "C1Q: complement factor, primary initiating component of the classical complement pathway; drusen component, isolated from human blood", "values": [
      {"measurement": "zeta average (zeta potential)", "setting": "[6]", "result": 11.8, "unit": "mV"},
      {"measurement": "production of IL-1β", "setting": "[7]; BMDMs primed with CEP-HSA 3 h, C1Q 6 h", "result": "produced significant levels of IL-1β"},
      {"measurement": "secretion of TNFα", "setting": "[7]; BMDMs primed with CEP-HSA, C1Q added", "result": "remained unchanged"},
      {"measurement": "production of IL-1β", "setting": "[7]; C1Q alone, unprimed BMDMs", "result": "did not cause the production of IL-1β"},
      {"measurement": "cleaved caspase-1 p10", "setting": "[8]", "result": "observed cleaved caspase-1 p10"},
      {"measurement": "ASC oligomerisation (YFP-ASC speck formation)", "setting": "[9]", "result": "could cause ASC oligomerisation"},
      {"measurement": "production of IL-1β", "setting": "[10]; Nlrp3-/- cells", "result": "failed to produce IL-1β"},
      {"measurement": "production of IL-1β", "setting": "[10]; WT BMDCs", "result": "did produce a significant level of IL-1β"},
      {"measurement": "levels of TNFα", "setting": "[10]; WT and Nlrp3-/- BMDCs, LPS primed, C1Q", "result": "remained unchanged"}
    ]},
    {"molecule": "c1ccc2c(c1)[I+]c1ccccc1-2", "note": "[DPI]", "values": [
      {"measurement": "C1Q induced IL-1β production", "setting": "[5]", "result": "no effect"}
    ]},
    {"molecule": "CC(NC(=O)C(NC(=O)OCc1ccccc1)C(C)C)C(=O)NC(CC(=O)O)C(=O)CF", "note": "(stereo not drawn) [ZVAD] (Cbz-Val-Ala-Asp-CH2F; configuration not given here)", "values": [
      {"measurement": "C1Q induced IL-1β production", "setting": "[5]", "result": "decreased"},
      {"measurement": "C1Q induced IL-18 production", "setting": "[5]", "result": "decreased"}
    ]}
  ]
}
